Legend:
[1] = Distillation of crude isosorbide mixture with added antioxidant: co-distillation and initial distillate color; format: physicochemical
Experimental: A 500 mL boiling flask equipped with a Teflon stir bar was charged with 100 g of ion-exchanged (strong acid cation/strong base anion-exchanged), dewatered, molten isosorbide. While stirring, 40.02 mg of 2,6-di-tert-butyl-4-methoxyphenol (DTMP), previously dissolved in 2 mL of absolute ethanol, was added via pipette, indicating the DTMP concentration as 400 ppm in the matrix. The flask was then outfitted with a still head, condenser, and receiver, placed under a vacuum of <2 torr, and placed in a digitally controlled oil bath. The bath was gradually heated to 190 degrees Celsius while maintaining a vacuum. At a bath temperature of approximately 155 degrees, isosorbide began to distill (vapor temperature of 150 deg C.). Continuous distillation occurred for approximately 30 minutes. 45.6 grams of clear, colorless isosorbide was collected, whose APHA color was measured as 6. Quantitative analysis by UPLC determined the concentration of DTMP in the distilled isosorbide to be 503 ppm.
In this as in subsequent examples, a quantity of an antioxidant under evaluation was dissolved in 1-2 mL of absolute ethanol and then added via pipette to a crude isosorbide mixture which had been treated previously to remove ionic species therefrom. Amounts were set so that the concentration of the antioxidant in the crude isosorbide mixture was in the range of from 250 to 900 ppm by weight. The stabilized crude isosorbide mixtures were then distilled in turn in a short path, jacketed distillation apparatus consisting of a 250 cc 3 neck boiling flask containing a PTFE magnetic stir bar in which one neck was fitted with a rubber septum, a thermocouple extended into the mixture being distilled from a central neck, and the third neck was equipped with the short path head leading to a boiling flask receiver maintained at 80 degrees Celsius. The boiling flask was immersed in an oil bath maintained at from 185 to 195 degrees Celsius, and distillation occurred under a vacuum pressure of less than 2 torr.

[2] = Heating of isosorbide distillate in 200° C. oil bath for 1 hr under air, APHA color by UV/vis; format: physicochemical; conditions: 0.5 g diluted with 2 mL water
Experimental: About, an 11 gram sample of the isosorbide distillate was added to a glass tube and capped with a septum. The glass tube was then submerged in a 200° C. oil bath for 1 hr under air. Approximately 0.5 g of the heated distillate sample was subsequently diluted with 2 mL of water and analyzed by UV/vis to obtain an APHA color value. An APHA color of approximately 250 was observed, compared to an APHA value for a distillate sample absent the DTMP additive that was offscale (>500).
About an 11 gram sample of the isosorbide distillate was added to a glass tube and capped with a septum. The glass tube was then submerged in a 200° C. oil bath for 1 hr under air.

[3] = Thermal aging of neat distillate in 85 deg C. oven under air up to 28 days; format: physicochemical
Experimental: The DTMP-stabilized distillate was further tested for color storage stability by thermal aging over a more extended period of time, in particular, by preparing typically five 10 mL headspace vials of each of the neat distillate and an 85% solution of the distillate in water in 0.5 gram sample portions. One vial of the set of five for the neat distillate or the 85% solution was set aside as the “time zero” data point. The time zero sample was diluted with 2 mL of water and analyzed.
For the neat distillate, the APHA color of the time zero sample was less than 20 by UV/vis. All other decomposition products were less than 5 ppm. The four other vials of the neat distillate were then placed in an 85 deg C. oven trader air, and one vial was removed at 7 days, another at 14 days, another at 21 days, and the last of the four at 28 days. Once removed from the oven, each sample was allowed to cool to room temperature and diluted with 2 mL of water. The sample was then analyzed by UV/vis, UPLC, LC-MS, and GC. After 28 days, APHA color, measured as a 20% solution, was only 28. Furfural and formic acid were measured at 18 ppm and 39 ppm, respectively.
The BBTC-stabilized distillate was further tested for color storage stability by thermal aging over a more extended period of time, in particular, by preparing typically five 10 mL headspace vials of each of the neat distillate and an 85% solution of the distillate in water in 0.5 gram sample portions. One vial of the set of five for the neat distillate or the 85% solution was set aside as the “time zero” data point. The time zero sample was diluted with 2 mL of water and analyzed.
For the neat distillate, the APHA color of the time zero sample was less than 1 by UV/vis. Formic acid concentration in the time zero sample was less than 5 ppm, while furfural concentration was less than 1 ppm. The four other vials of the neat distillate were then placed in an 85 deg C. oven under air, and one vial was removed at 7 days, another at 14 days, another at 21 days, and the last of the four at 28 days. Once removed from the oven, each sample was allowed to cool to room temperature and diluted with 2 mL of water. Each sample was then analyzed by UV/vis, UPLC, LC-MS, and GC. After 28 days, APHA color, measured as a 20% solution, was 191. Furfural and formic acid were measured at 298 ppm and 6,102 ppm, respectively.

[4] = Thermal aging of 85% solution of the distillate in water at 85 deg C. up to 28 days; format: physicochemical; conditions: 85% solution
[5] = Solubility and retention of stabilizer in isosorbide product; conditions: 85% solution isosorbide product
[6] = Isosorbide (100% molten) mixed with additives, heated 1-2 hours at 200 degrees Celsius, accelerated aging tests; conditions: additive screening

SMILES	antioxidant recovered in the distillate, yield ([1]; co-distilled with isosorbide) [%]	initial APHA color of the neat distillate ([1]; neat distillate after distillation, ASTM D1209)	additive distilled with the isosorbide / recovered in the distillate by UPLC analysis ([1]; short path distillation, oil bath 185 to 195 degrees Celsius, less than 2 torr)	APHA color after heating [2]	color stability criteria after accelerated aging ([3]; 85 degrees Celsius, 4 weeks, APHA less than 200 neat distillate and less than 250 for 85% solution)	formic acid after 28 days ([3]; neat distillate, 85 deg C., 28 days) [ppm]	APHA color after 28 days ([3]; neat distillate, 85 deg C., air, 28 days, measured as a 20% solution)	formic acid concentration, time zero ([3]; neat distillate, time zero)	APHA color, time zero ([3]; neat distillate, time zero, UV/vis)	formic acid concentration, final sample ([4]; 85 deg C., 28 days) [ppm]	APHA color, day 28 ([4]; 85 deg C., day 28, final diluted (20%))	formic acid concentration, initially ([4]; initial)	APHA color, time zero ([4]; time zero, diluted (20%))	solubility in 85% solution product [5]	effect on color stability of isosorbide [6]
COc1cc(C)cc(OC)c1O [DMMP, 2,6-dimethoxy-4-methylphenol]	84	13	About 84%	205	criteria were met	74	17	less than 5 ppm	less than 15	63	50	less than 5 ppm	5	continued good solubility	–
C1OC1COC1COC2C(OCC3CO3)COC12 (stereo not drawn) [isosorbide diglycidol ether]	–	–	–	–	–	–	–	–	–	–	–	–	–	–	ineffective in the absence of an antioxidant
